# Test results published in ChEMBL document CHEMBL2074130, “Reversal of breast cancer resistance protein-mediated drug resistance by estrogen antagonists and agonists” (Mol Cancer Ther, 2003).
# Target: T1, Broad substrate specificity ATP-binding cassette transporter ABCG2 (Homo sapiens, UniProt Q9UNQ0)
# T1 sequence (Q9UNQ0 whole entry): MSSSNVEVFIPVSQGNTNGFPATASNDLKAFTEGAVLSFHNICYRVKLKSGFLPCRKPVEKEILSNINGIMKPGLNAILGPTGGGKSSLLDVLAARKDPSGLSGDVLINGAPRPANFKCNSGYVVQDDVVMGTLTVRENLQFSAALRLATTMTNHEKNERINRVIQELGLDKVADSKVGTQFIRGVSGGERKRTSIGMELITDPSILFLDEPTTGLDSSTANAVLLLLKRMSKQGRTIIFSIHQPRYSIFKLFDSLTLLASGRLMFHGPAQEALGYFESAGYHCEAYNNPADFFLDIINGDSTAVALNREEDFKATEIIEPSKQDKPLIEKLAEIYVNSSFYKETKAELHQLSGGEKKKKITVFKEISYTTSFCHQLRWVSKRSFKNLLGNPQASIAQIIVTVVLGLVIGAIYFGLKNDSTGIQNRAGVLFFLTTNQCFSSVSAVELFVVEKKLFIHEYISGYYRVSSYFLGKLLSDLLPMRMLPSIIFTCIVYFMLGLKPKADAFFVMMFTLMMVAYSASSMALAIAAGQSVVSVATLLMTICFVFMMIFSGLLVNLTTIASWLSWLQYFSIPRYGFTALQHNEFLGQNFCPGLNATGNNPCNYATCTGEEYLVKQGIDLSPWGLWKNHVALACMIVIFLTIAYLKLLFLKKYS
# Test: TP_TRANSPORTER: drug resistance in BCRP-expressing K562 cells
# Type: functional, cell-based
row,Activity,Structure (SMILES)
1,substrate [],CCc1c2c(nc3ccc(O)cc13)-c1cc3c(c(=O)n1C2)COC(=O)[C@]3(O)CC [7-ETHYL-10-HYDROXYCAMPTOTHECIN]
2,substrate [],CC[C@@]1(O)C(=O)OCc2c1cc1n(c2=O)Cc2cc3c(CN(C)C)c(O)ccc3nc2-1 [TOPOTECAN]

row,Structure (SMILES),Activity
1,O=C1c2c(O)ccc(O)c2C(=O)c2c(NCCNCCO)ccc(NCCNCCO)c21 [MITOXANTRONE],substrate []

# Target: T1, Broad substrate specificity ATP-binding cassette transporter ABCG2
# Test: TP_TRANSPORTER: inhibition of topotecan uptake in BCRP-expressing K562 cells
# Type: functional, cell-based
row,Activity,Structure (SMILES)
1,inhibitor [],CC/C(=C(\c1ccc(O)cc1)c1ccc(OCCN(C)C)cc1)c1ccc(C(C)C)cc1 [MIPROXIFENE]
2,inhibitor [],CC/C(=C(/CC)c1ccc(O)cc1)c1ccc(O)cc1 [DIETHYLSTILBESTROL]
3,inhibitor [],CC/C(=C(\c1ccc(O)cc1)c1ccc(OCCNC)cc1)c1ccc(C(C)CO)cc1 (configuration not stated)
4,inhibitor [],CC/C(=C(/c1ccc(OCCN(C)C)cc1)c1ccc(OCc2ccc([N+](=O)[O-])cc2)cc1)c1ccccc1
5,inhibitor [],CC/C(=C(\c1ccc(O)cc1)c1ccc(OCCN(C)C)cc1)c1ccc(OC)cc1
6,inhibitor [],CC/C(=C(\c1ccc(O)cc1)c1ccc(OCCN(C)C)cc1)c1ccc(OCc2ccccc2)cc1
7,inhibitor [],C[C@]12CC[C@@H]3c4ccc(O)cc4CC[C@H]3[C@@H]1CCC2=O [ESTRONE]
8,inhibitor [],CC/C(=C(/c1ccc(OCCN(C)C)cc1)c1ccc(OCc2ccccc2)cc1)c1ccccc1
9,inhibitor [],CCC(=O)Oc1ccc(/C(CC)=C(\CC)c2ccc(OC(=O)CC)cc2)cc1 [DIETHYLSTILBESTROL DIPROPIONATE]
